The values below are quoted from earlier work in patent publication US20220160649A1, “PHARMACEUTICAL COMPOSITION” (priority 2019, published 2022).

The conditions of the data set: stated as well known.

For `Oc1ccc(/C=C/c2cc(O)cc(O)c2)cc1` [resveratrol (IIIA), resveratrol], the solubility in water entry is recorded as “almost insoluble”.
